{"source": "patent US6566304B1", "about": "“Biogenic control and limitation of the reproduction of parasitic earth nematodes in stock culture” (priority 1998, dated 2003)", "type_in_all_cases": "in vivo", "key": {"tomatoes [1]": {"tested_on": "tomatoes", "assay": "Example 6 pot test with tomatoes, reduction of nematicides: plant growth", "experimental": "(§1) Tomatoes were pregerminated in a temperature-controlled (18° C.) greenhouse and, at the two-leaf stage, the plants were each transplanted in a plastic pot (9×9 cm) filled with 500 g of a mixture of field soil and sand (1:1). The test substances were applied 2 days after transplanting. One day later, each pot was inoculated with 1,000 larvae of the nematode Meloidogyne incognita. 6 Weeks later, the test was terminated and the density of the nematodes and also the shoot and root weights of the plants were determined.\n(§2) The following variants (with 10 repetitions each) were selected for the tests: fertilized control (quantity of N/P corresponds to 40 g/m^2 TerraPy B) control treated with nematicide (Aldicarb, 1 ppm)\n(§3) TerraPy B 20 g/m^2 plus Aldicarb 0.1 ppm\n(§4) In addition, pots with all the variants mentioned above which had not been inoculated with nematodes were included in the tests."}, "tomatoes [2]": {"tested_on": "tomatoes", "assay": "Example 5 pot test with tomatoes: plant growth", "conditions": "Example 5, tomatoes, 1,000 M. incognita larvae per pot, 8 weeks; comparators: Aldicarb 1 ppm; fertilized control N/P corresponds to 40 g/m^2 TerraPy B", "experimental": "as §1, with “8” for “6”\n(§5) The following variants (with 8 repetitions each) were selected for the tests:\n(§6) fertilized control (quantity of N/P corresponds to 40 g/m^2 TerraPy B)\n(§7) control treated with nematicide (Aldicarb, 1 ppm)\n(§8) The object of this test was to investigate the smaller effective dose of the product."}, "[3]": {"tested_on": "nematode Meloidogyne incognita", "assay": "Example 6 pot test with tomatoes, reduction of nematicides: gall index", "conditions": "Example 6, tomatoes, 6 weeks; Aldicarb 1 ppm; fertilized control N/P corresponds to 40 g/m^2 TerraPy B; TerraPy B 20 g/m^2; TerraPy B 20 g/m^2 plus Aldicarb 0.1 ppm", "experimental": "(§9) The gall index is a measure of the damage caused to the root system by the nematodes and is basically a scale of 1 to 10 where 1=undamaged and 10=completely damaged root system.\nas §1, §2, §3, §4"}, "sugar beet": {"tested_on": "sugar beet", "assay": "Example 3 pot test with sugar beet: plant growth", "experimental": "as §1, with “Sugar beet was” for “Tomatoes were”, “500” for “1,000”, “Heterodera schachtii.” for “Meloidogyne incognita.”\n(§10) The following variants (with 10 repetitions each) were selected for the tests:\n(§11) fertilized control (quantity of N/P corresponds to 40 g/m^2 TerraPy G)\nas §7"}, "[4]": {"tested_on": "microorganisms (bacteria per g of soil)", "assay": "Example 5 pot test with tomatoes: soil microorganisms", "experimental": "as §1, with “8” for “6”\nas §5, §6, §7, §8"}, "[5]": {"tested_on": "nematode Meloidogyne incognita", "assay": "Example 4 pot test with tomatoes: gall index of root system", "conditions": "Example 4, tomatoes, 8 weeks; scale 1 to 10 (1=undamaged, 10=completely damaged root system); comparators: Aldicarb 1 ppm; fertilized control N/P corresponds to 40 g/m^2 TerraPy B", "experimental": "as §1, with “8” for “6”\nas §10, §6, §7, §9"}, "[6]": {"tested_on": "nematode Meloidogyne incognita", "assay": "Example 5 pot test with tomatoes: gall index of root system", "conditions": "Example 5, tomatoes, 8 weeks; scale 1 to 10; comparators: Aldicarb 1 ppm; fertilized control N/P corresponds to 40 g/m^2 TerraPy B", "experimental": "as §9\nas §1, with “8” for “6”\nas §5, §6, §7, §8"}, "tomatoes [7]": {"tested_on": "tomatoes", "assay": "Example 4 pot test with tomatoes: plant growth", "experimental": "as §1, with “8” for “6”\nas §10, §6, §7"}, "[8]": {"tested_on": "microorganisms (bacteria per g of soil)", "assay": "Example 4 pot test with tomatoes: soil microorganisms", "experimental": "as §1, with “8” for “6”\nas §10, §6, §7"}, "[9]": {"tested_on": "microorganisms (bacteria per g of soil)", "assay": "Example 3 pot test with sugar beet: soil microorganisms"}, "tomatoes [10]": {"tested_on": "tomatoes", "assay": "Example 7 pot test with tomatoes, combination with mycorrhiza: plant growth", "conditions": "Example 7, tomatoes, 1,500 M. incognita larvae per pot, 9 weeks; Aldicarb 1 ppm; fertilized control N/P corresponds to 2 g/m^2 TerraPy B; TerraPy B 2 g/m^2; mycorrhiza 0.2%", "experimental": "(§12) Tomato seeds were planted in plastic pots (9×9 cm) each filled with 320 g of a mixture of field soil and sand (1:1) in a temperature-controlled greenhouse (18° C.). The test substances were applied 29 days after emergence. Two days later, each pot was inoculated with 1,500 larvae of the nematode Meloidogyne incognita. 9 Weeks later, the test was terminated and the density of the nematodes and the shoot and root weights of the plants were determined.\nas §10\n(§13) fertilized control (quantity of N/P corresponds to 2 g/m^2 TerraPy B)\n(§14) nematicide-treated control (Aldicarb, 1 ppm)\n(§15) mycorrhiza fungus mixture 0.2%\n(§16) TerraPy B 2 g/m^2 plus mycorrhiza 0.2%\n(§17) The mycorrhiza fungus mixture contained a mixed population of various Glomus strains of the species Glomus sclerocystis and G. gigasporum with 950 infectious units per cm^3 (=0.64 g per pot). The mixture was mixed with the pot soil after dilution to 0.2% at the beginning of the test."}, "[11]": {"tested_on": "nematode Heterodera schachtii", "assay": "Example 3 pot test with sugar beet: nematode cysts on roots", "conditions": "Example 3, sugar beet, 6 weeks; comparators: Aldicarb 1 ppm; fertilized control N/P corresponds to 40 g/m^2 TerraPy G", "experimental": "as §1, with “Sugar beet was” for “Tomatoes were”, “500” for “1,000”, “Heterodera schachtii.” for “Meloidogyne incognita.”\nas §10, §11, §7"}, "[12]": {"tested_on": "nematode Meloidogyne incognita", "assay": "Example 7 pot test with tomatoes, combination with mycorrhiza: galls on root system", "conditions": "Aldicarb 1 ppm, fertilized control N/P corresponds to 2 g/m^2 TerraPy B, TerraPy B 2 g/m^2, mycorrhiza 0.2%", "experimental": "as §12, §10, §13, §14, §15, §16, §17"}, "[13]": {"conditions": "2 days, comparators: Aldicarb 1 ppm, fertilized control"}, "[14]": {"conditions": "14 days, comparators: Aldicarb 1 ppm, fertilized control"}, "[15]": {"conditions": "56 days, comparators: Aldicarb 1 ppm, fertilized control"}, "[16]": {"conditions": "Example 4, tomatoes, 8 weeks, comparators: Aldicarb 1 ppm, fertilized control N/P corresponds to 40 g/m^2 TerraPy B"}}}
{"molecule": "CNC(=O)O/N=C/C(C)(C)SC", "note": "[Aldicarb]", "values": [{"measurement": "plant growth / plant weight, in words", "setting": "tomatoes [1]; Example 6, tomato pot test", "result": "completely ineffective"}, {"measurement": "Root weight", "setting": "tomatoes [1]; Example 6, tomatoes, 6 weeks, Aldicarb 1 ppm, fertilized control N/P corresponds to 40 g/m^2 TerraPy B, TerraPy B 20 g/m^2, TerraPy B 20 g/m^2 plus Aldicarb 0.1 ppm", "result": 1.8, "unit": "g"}, {"measurement": "Shoot weight", "setting": "tomatoes [1]; Example 6, tomatoes, 1,000 M. incognita larvae per pot, 6 weeks, Aldicarb 1 ppm, fertilized control N/P corresponds to 40 g/m^2 TerraPy B, TerraPy B 20 g/m^2, TerraPy B 20 g/m^2 plus Aldicarb 0.1 ppm", "result": 3, "unit": "g"}, {"measurement": "Shoot weight", "setting": "tomatoes [2]", "result": 4.2, "unit": "g"}, {"measurement": "Gall index", "setting": "[3]", "result": 0.5}, {"measurement": "plant growth / plant weight, in words", "setting": "sugar beet; Example 3, sugar beet pot test", "result": "not effective in increasing plant weight"}, {"measurement": "Root weight", "setting": "sugar beet; Example 3, sugar beet, 6 weeks, comparators: Aldicarb 1 ppm, fertilized control N/P corresponds to 40 g/m^2 TerraPy G", "result": 0.7, "unit": "g"}, {"measurement": "Shoot weight", "setting": "sugar beet; Example 3, sugar beet, 500 H. schachtii larvae per pot, 6 weeks, comparators: Aldicarb 1 ppm, fertilized control N/P corresponds to 40 g/m^2 TerraPy G", "result": 2.1, "unit": "g"}, {"measurement": "effect on bacteria / microorganisms, in words", "setting": "[4]", "result": "harmful effect"}, {"measurement": "bacteria per g of soil, 2 Days after application", "setting": "[4]; [13]", "result": "6 × 10^6 bacteria per g of soil"}, {"measurement": "bacteria per g of soil, 14 Days after application", "setting": "[4]; [14]", "result": "1 × 10^6 bacteria per g of soil"}, {"measurement": "bacteria per g of soil, 56 Days after application", "setting": "[4]; [15]", "result": "5 × 10^5 bacteria per g of soil"}, {"measurement": "Gall index", "setting": "[5]", "result": 3.9}, {"measurement": "Gall index", "setting": "[6]", "result": 4.2}, {"measurement": "plant growth / plant weight, in words", "setting": "tomatoes [7]; Example 4, tomato pot test", "result": "not effective in increasing plant weight"}, {"measurement": "Root length in cm", "setting": "tomatoes [7]; [16]", "result": 12.0, "unit": "cm"}, {"measurement": "Root weight", "setting": "tomatoes [7]; [16]", "result": 1.5, "unit": "g"}, {"measurement": "Shoot weight", "setting": "tomatoes [7]; Example 4, tomatoes, 1,000 M. incognita larvae per pot, 8 weeks, comparators: Aldicarb 1 ppm, fertilized control N/P corresponds to 40 g/m^2 TerraPy B", "result": 4.7, "unit": "g"}, {"measurement": "effect on bacteria / microorganisms, in words", "setting": "[8]", "result": "harmful effect"}, {"measurement": "bacteria per g of soil, 2 Days after application", "setting": "[8]; [13]", "result": "1 × 10^7 bacteria per g of soil"}, {"measurement": "bacteria per g of soil, 14 Days after application", "setting": "[8]; [14]", "result": "4 × 10^7 bacteria per g of soil"}, {"measurement": "bacteria per g of soil, 56 Days after application", "setting": "[8]; [15]", "result": "1 × 10^6 bacteria per g of soil"}, {"measurement": "effect on bacteria / microorganisms, in words", "setting": "[9]", "result": "harmful effect"}, {"measurement": "bacteria per g of soil, 2 Days after application", "setting": "[9]; [13]", "result": "7 × 10^6 bacteria per g of soil"}, {"measurement": "bacteria per g of soil, 14 Days after application", "setting": "[9]; [14]", "result": "8 × 10^6 bacteria per g of soil"}, {"measurement": "bacteria per g of soil, 56 Days after application", "setting": "[9]; [15]", "result": "1 × 10^7 bacteria per g of soil"}, {"measurement": "Shoot weight", "setting": "tomatoes [10]", "result": 4.2, "unit": "g"}, {"measurement": "Nematode cysts per g root weight", "setting": "[11]", "result": 15, "unit": "per g root weight"}, {"measurement": "Number of galls per root system", "setting": "[12]; Example 7, tomatoes, 9 weeks", "result": 22}, {"measurement": "Number of galls per root system, In percent", "setting": "[12]; Example 7, unfertilized untreated control = 100%", "result": 19, "unit": "%"}]}
